From ChEMBL document CHEMBL1201862, “PubChem BioAssay data set” (2004)
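Where inhibition never reached the appropriate level, the endpoint shown equals the highest concentration tested. Otherwise, values were interpolated linearly from a five-concentration, 48-hour dose response in 96-well plates. GI50 is the concentration that inhibits growth by half.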 Activity calls are given as the source filed them. Rule as the data show it: active = GI50 up to about 1.1 µM and inactive = higher.

What was measured:
Test in all cases: NCI anticancer screen, dose series, 48 h
A498 = tested on: A498
CCRF-CEM = tested on: CCRF-CEM
COLO 205 = tested on: COLO 205
DU-145 = tested on: DU-145
EKVX = tested on: EKVX
M14 = tested on: M14
MDA-MB-231 = tested on: MDA-MB-231
NCI-H522 = tested on: NCI-H522
OVCAR-3 = tested on: OVCAR-3
OVCAR-4 = tested on: OVCAR-4
OVCAR-5 = tested on: OVCAR-5
PC-3 = tested on: PC-3
SF-295 = tested on: SF-295
SN12C = tested on: SN12C
SNB-75 = tested on: SNB-75
SW-620 = tested on: SW-620
TK-10 = tested on: TK-10
UO-31 = tested on: UO-31
NCI-H226 = tested on: NCI-H226

Compound	GI50 (A498)	GI50 (CCRF-CEM)	GI50 (COLO 205)	GI50 (DU-145)	GI50 (EKVX)	GI50 (M14)	GI50 (MDA-MB-231)	GI50 (NCI-H522)	GI50 (OVCAR-3)	GI50 (OVCAR-4)	GI50 (OVCAR-5)	GI50 (PC-3)	GI50 (SF-295)	GI50 (SN12C)	GI50 (SNB-75)	GI50 (SW-620)	GI50 (TK-10)	GI50 (UO-31)	GI50 (NCI-H226)
O=C(O)c1cc(Cl)cc(Cc2cc(Cl)cc(C(=O)O)c2O)c1O	> 100 µM (inactive)	> 100 µM (inactive)	> 100 µM (inactive)	> 100 µM (inactive)	> 100 µM (inactive)	> 100 µM (inactive)	> 100 µM (inactive)	> 100 µM (inactive)	> 100 µM (inactive)	> 100 µM (inactive)	> 100 µM (inactive)	> 100 µM (inactive)	> 100 µM (inactive)	> 100 µM (inactive)	> 100 µM (inactive)	> 100 µM (inactive)	> 100 µM (inactive)	> 100 µM (inactive)	–
CCOC(=O)c1ccc(/N=C/C=C(\Nc2ccc(C(=O)OCC)cc2)C23CC4CC(CC(C4)C2)C3)cc1	38.4 µM (inactive)	–	45 µM (inactive)	55.1 µM (inactive)	48.4 µM (inactive)	35.8 µM (inactive)	> 100 µM (inactive)	> 100 µM (inactive)	> 100 µM (inactive)	70 µM (inactive)	35.8 µM (inactive)	51.1 µM (inactive)	52.1 µM (inactive)	53.2 µM (inactive)	65.6 µM (inactive)	27.5 µM (inactive)	71.6 µM (inactive)	3.43 µM (inactive)	> 100 µM (inactive)
Cc1cc2c(cc1Cl)Sc1nnc(Nc3ccccc3)n1S2(=O)=O	12.7 µM (inactive)	–	–	18.2 µM (inactive)	11.7 µM (inactive)	14.1 µM (inactive)	11.7 µM (inactive)	2.93 µM (inactive)	2.2 µM (inactive)	6.89 µM (inactive)	31.9 µM (inactive)	5.7 µM (inactive)	13.3 µM (inactive)	–	5.47 µM (inactive)	7.87 µM (inactive)	17.8 µM (inactive)	13.4 µM (inactive)	3.08 µM (inactive)
CN(C)CCNc1ccc(NCC[N+](C)(C)Cc2ccc([N+](=O)[O-])cc2)c2c1C(=O)c1c(O)ccc(O)c1C2=O	> 100 µM (inactive)	11.5 µM (inactive)	27.6 µM (inactive)	30.1 µM (inactive)	> 100 µM (inactive)	–	43.2 µM (inactive)	–	> 100 µM (inactive)	> 100 µM (inactive)	–	56 µM (inactive)	–	12.2 µM (inactive)	19.6 µM (inactive)	27.9 µM (inactive)	–	–	15.3 µM (inactive)
CCOC(=O)/C(C#N)=N\Nc1ccc(-n2c(C)nc3ccc(Br)cc3c2=O)cc1	> 100 µM (inactive)	33.2 µM (inactive)	58.3 µM (inactive)	57.4 µM (inactive)	87.1 µM (inactive)	69.5 µM (inactive)	> 100 µM (inactive)	–	52.7 µM (inactive)	–	> 100 µM (inactive)	63.8 µM (inactive)	64.7 µM (inactive)	63.8 µM (inactive)	55.1 µM (inactive)	90.6 µM (inactive)	> 100 µM (inactive)	30.5 µM (inactive)	79.8 µM (inactive)
O=C(O)c1cccc(Nc2c(C(=O)O)cccc2[N+](=O)[O-])c1	> 100 µM (inactive)	> 100 µM (inactive)	> 100 µM (inactive)	> 100 µM (inactive)	> 100 µM (inactive)	> 100 µM (inactive)	> 100 µM (inactive)	> 100 µM (inactive)	> 100 µM (inactive)	> 100 µM (inactive)	> 100 µM (inactive)	> 100 µM (inactive)	> 100 µM (inactive)	> 100 µM (inactive)	> 100 µM (inactive)	–	> 100 µM (inactive)	> 100 µM (inactive)	–
FC1C2=C(SC1(F)F)C1CCC2C1 (centres undefined)	–	–	> 100 µM (inactive)	> 100 µM (inactive)	> 100 µM (inactive)	> 100 µM (inactive)	> 100 µM (inactive)	> 100 µM (inactive)	> 100 µM (inactive)	> 100 µM (inactive)	> 100 µM (inactive)	> 100 µM (inactive)	> 100 µM (inactive)	–	> 100 µM (inactive)	> 100 µM (inactive)	> 100 µM (inactive)	> 100 µM (inactive)	> 100 µM (inactive)
CCC(C)N1CN(c2ccccc2)C2(CCN(CC3COc4ccccc4O3)CC2)C1=O (centres undefined)	–	19.9 µM (inactive)	17.7 µM (inactive)	21.6 µM (inactive)	14.9 µM (inactive)	20.2 µM (inactive)	> 100 µM (inactive)	22.8 µM (inactive)	15.7 µM (inactive)	–	> 10 µM (inactive)	26.6 µM (inactive)	19 µM (inactive)	27.7 µM (inactive)	36.9 µM (inactive)	22.3 µM (inactive)	27.5 µM (inactive)	10.8 µM (inactive)	21 µM (inactive)
CC1(C)OC[C@@H]([C@H](C=O)OCc2ccccc2)O1	> 100 µM (inactive)	> 100 µM (inactive)	> 100 µM (inactive)	> 100 µM (inactive)	> 100 µM (inactive)	> 100 µM (inactive)	> 100 µM (inactive)	–	> 100 µM (inactive)	> 100 µM (inactive)	> 100 µM (inactive)	> 100 µM (inactive)	> 100 µM (inactive)	> 100 µM (inactive)	> 100 µM (inactive)	> 100 µM (inactive)	> 100 µM (inactive)	> 100 µM (inactive)	> 100 µM (inactive)
Cc1cc2c(c(C(=O)NCCC(=O)N[C@@H](C)C(=O)OCc3ccccc3)c1)Oc1c(cc(C)cc1C(=O)NCCC(=O)N[C@@H](C)C(=O)OCc1ccccc1)S2	> 100 µM (inactive)	> 100 µM (inactive)	> 100 µM (inactive)	> 100 µM (inactive)	> 100 µM (inactive)	> 100 µM (inactive)	> 100 µM (inactive)	–	> 100 µM (inactive)	> 100 µM (inactive)	> 100 µM (inactive)	> 100 µM (inactive)	> 100 µM (inactive)	> 100 µM (inactive)	> 100 µM (inactive)	> 100 µM (inactive)	–	> 100 µM (inactive)	> 100 µM (inactive)
CN(C)c1ccc(C2SCC(=O)N2c2ccc(Oc3ccc(Cl)cc3)c(Cl)c2)cc1 (centres undefined)	–	18.5 µM (inactive)	20.6 µM (inactive)	16.7 µM (inactive)	22.8 µM (inactive)	28.8 µM (inactive)	20.4 µM (inactive)	18.3 µM (inactive)	23.3 µM (inactive)	22.9 µM (inactive)	26.4 µM (inactive)	19.9 µM (inactive)	> 10 µM (inactive)	23.3 µM (inactive)	17.6 µM (inactive)	29.4 µM (inactive)	48.4 µM (inactive)	11.6 µM (inactive)	30.4 µM (inactive)
CC1OC2OC3C(OCC(O)C3O)OC(=O)[C@]34CCC(C)(C)CC3C3=CCC5[C@@]6(C)C[C@H](O)[C@H](OC7OC(CO)C(O)C(O)C7OC7OC(COC(=O)CC(C)(O)CC(=O)OC1C(OC1OC(CO)C(O)C(O)C1O)C2O)C(O)C(O)C7O)[C@@](C)(CO)C6CC[C@@]5(C)[C@]3(C)CC4 (some centres undefined)	–	4.18 µM (inactive)	2.23 µM (inactive)	2.61 µM (inactive)	–	2.51 µM (inactive)	7.52 µM (inactive)	2 µM (inactive)	4.35 µM (inactive)	5.16 µM (inactive)	2.01 µM (inactive)	1.95 µM (inactive)	1.52 µM (inactive)	4.98 µM (inactive)	2.82 µM (inactive)	0.359 µM (active)	1.85 µM (inactive)	1.64 µM (inactive)	7.91 µM (inactive)
CSc1ccc(/C=C2\N=C(c3ccccc3)N(c3nc4ccc(Sc5ccccc5)cc4[nH]3)C2=O)cc1	18.2 µM (inactive)	27.4 µM (inactive)	13.9 µM (inactive)	27.6 µM (inactive)	31 µM (inactive)	15.3 µM (inactive)	18.3 µM (inactive)	15.9 µM (inactive)	2.01 µM (inactive)	30.9 µM (inactive)	26.2 µM (inactive)	21.8 µM (inactive)	14.3 µM (inactive)	21.7 µM (inactive)	18.1 µM (inactive)	17.9 µM (inactive)	16.9 µM (inactive)	18.3 µM (inactive)	–
Cc1nc(/C(=N\n2cnnc2)Nc2ccc(Br)cc2)no1	> 100 µM (inactive)	> 100 µM (inactive)	> 100 µM (inactive)	> 100 µM (inactive)	> 100 µM (inactive)	> 100 µM (inactive)	> 100 µM (inactive)	> 100 µM (inactive)	> 100 µM (inactive)	> 100 µM (inactive)	> 100 µM (inactive)	> 100 µM (inactive)	> 100 µM (inactive)	–	66.7 µM (inactive)	> 100 µM (inactive)	–	> 100 µM (inactive)	–
O=C1OC(c2ccc(O)c(Cl)c2)(c2ccc(O)c(Cl)c2)c2ccc(Br)c3cccc1c23.O=C1OC(c2ccc(O)c(Cl)c2)(c2ccc(O)c(Cl)c2)c2cccc3c(Br)ccc1c23	18.7 µM (inactive)	16.9 µM (inactive)	7.05 µM (inactive)	23.7 µM (inactive)	14 µM (inactive)	28.8 µM (inactive)	14.2 µM (inactive)	–	5.82 µM (inactive)	2.67 µM (inactive)	20.7 µM (inactive)	14.3 µM (inactive)	18.3 µM (inactive)	15 µM (inactive)	22.5 µM (inactive)	23.9 µM (inactive)	17.1 µM (inactive)	19.4 µM (inactive)	17.7 µM (inactive)
